According to patent publication US20110124842A1 (priority 2003, published 2011):
Where two headings read alike, the source gives them in different places. Bridges are numbered along the chain shown (N, C = ends). Where no end group is shown, it is not given here. [ ]: non-standard residue; d: D form. code O = not defined here; Aib = CC(C)(N)C(=O)O

Key:
IgG 4E10 = assay: Competitive ELISA (IC50): peptide competes with biotinylated 4E10-epitope peptide for IgG 4E10; format: binding, human; conditions: for increased binding affinity in comparison with its peptide control: 33-1 vs control 44-1, 104-2 vs control 104-1, ELISA; for higher affinity of 4E10 than to the original peptide KGND: as determined by surface plasmon resonance and ELISA
Experimental: IC50, were determined by competitive ELISA using a constant concentration of biotinylated peptide and IgG with a variable concentration of gp41 peptides. Microwells were coated overnight at 4° C. with 50 μl PBS containing neutravidin (Pierce; 4 μg/ml). […] A mixture of a biotinylated 4E10-epitope peptide, […](biotin)-NH2 (SEQ ID NO: 88) (20 nM), IgG 4E10 (0.2 nM), and the competing peptide analog (3-fold dilution series starting at 10 μM) in 0.4% non-fat dry milk, 0.02% Tween and PBS was incubated in a separate 96-well plate at 37° C. for 2 hours. After washing the blocked plate, the mixture of 4E10, biotinylated peptide and competing peptide was added to the wells. After 20 minutes at room temperature, the Wells were washed five times, and a 1:500 dilution of goat anti-human IgG F(ab′)2 HRP conjugate (Pierce) was added. Following incubation at RT for 40 minutes, the wells were washed five times, and developed by adding 50 μl of TMB solution (Pierce) according to the manufacturer's instructions. After ˜20 minutes, wells containing TMB solution were stopped by adding 50 μl of H2SO4 (2M) and the O.D. at 450 nm was read on a microplate reader (Molecular Devices). The concentration of competitor peptide corresponding to a half-maximal signal (IC50) was determined by interpolation of the resulting binding curve. Each peptide competitor was tested in duplicate in at least two separate experiments.
IC50s were determined by competitive ELISA using a constant concentration of biotinylated peptide and IgG with a variable concentration of gp41 peptides. Microwells were coated overnight at 4° C. with 50 μl PBS containing neutravidin (Pierce; 4 μg/ml). […] Meanwhile, a mixture of a biotinylated 4E10-peptide epitope, […](biotin)-NH2 (SEQ ID NO: 88), (20 nM), IgG 4E10 (0.2 nM), and the competing peptide analogue (3-fold dilution series starting at 10 μM) in 0.4% NFDM, 0.02% Tween and PBS was incubated in a separate 96-well plate at 37° C. for 2 h. After washing the blocked plate, the mixture of 4E10, biotinylated peptide and competing peptide was added to the wells. After 20 min at room temperature, the wells were washed five times, and a 1:500 dilution of goat anti-human IgG F(ab′)2 HRP conjugate (Pierce) was added. Following incubation at RT for 40 min, the wells were washed five times, and developed by adding 50 μl of H2SO4 (2 M), and the O.D. at 450 nm was read on a microplate reader (Molecular Devices). The concentration of competitor peptide corresponding to a half-maximal signal (IC50) was determined by interpolation of the resulting binding curve. Each peptide competitor was tested in duplicate in at least two separate experiments.

Fab 4E10 = assay: Surface plasmon resonance (Biacore 2000), Fab 4E10 on CM5 chip; format: binding, human
Experimental: The affinitiefs of the peptide analogs for 4E10 were also measured by surface plasmon resonance. Surface plasmon resonance experiments were performed using a Biacore 2000 instrument (Uppsala, Sweden). Around 2,200 response units (RU) of Fab 4E10 were coated on CM5 chips. The carboxyl groups on the chip were activated with 1-ethyl-3-(3-dimethylaminopropyl)carbodiimide hydrochloride (EDC) and N-hydroxysuccinimide (NHS). Fifty micrograms of Fab were diluted in 10 mM sodium acetate pH 4.5; a flow rate of 5 μl/min was used. Unreacted carboxyl groups were blocked with 1M ethanolamine at pH 8.5. The control was treated in the same fashion without any antibody present. Different amounts of free peptides were then passed over the surfaces at 30 or 50 μl/min for 2 min. Regeneration was done in HPS-EP buffer, 0.25 NaCl (Biacore) in 10 minutes. The amount of salt was increased compared to the commercial buffer to reduce the non-specific binding. For data evaluation, the BIAevaluation software was used. RI and Rmax were controlled, double referencing were done (0 concentration and start point). Analyses were performed to achieve the best curve fitting and small chi^2 (<1).
Surface plasmon resonance experiments were performed using a Biacore 2000 instrument (Uppsala, Sweden).
Chip preparation: around 2,200 response units (RU) of Fab 4E10 were coated on CM5 chips. The carboxyl groups on the chip were activated with 1-ethyl-3-(3-dimethylaminopropyl) carbodiimide hydrochloride (EDC) and N-hydroxysuccinimide (NHS). Fifty micrograms of Fab was diluted in 10 mM sodium acetate pH 4.5; a flow rate of 5 μl/min was used. Unreacted carboxyl groups were blocked with 1M ethanolamine at pH 8.5. The control was treated in the same fashion without any antibody present.
Experiment: different amounts of free peptides were then passed over the surfaces at 30 or 50 μl/min for 2 min. Regeneration was done in HPS-EP buffer, 0.25 NaCl (Biacore) in 10 min. The amount of salt was increased compared to the commercial buffer to reduce the non-specific binding.
Data evaluation: the BIAevaluation software was used. RI and Rmax were controlled, double referencing were done (0 concentration and start point). Analyses were performed to achieve the best curve fitting and small chi^2 (<1).

[1] = target: recombinant IgG1(kappa) 4E10; assay: competitive ELISA: peptide against biotinylated …(biotin)-NH2 for IgG 4E10
[2] = Table 5, unconstrained peptide analogs, 4E10 binding, read-out: IC50
[3] = Table 6, constrained analogs, 4E10 binding, read-out: IC50
[4] = Table 7, 4E10 peptide epitopes, read-out: IC50
[5] = read-out: IC50 (4E10 binding, competitive ELISA)
[6] = Table 7, 4E10 peptide epitopes, read-out: Kd
[7] = Table 6, constrained analogs, 4E10 binding, read-out: Kd

Chain of recombinant IgG1(kappa) 4E10 (heavy, as listed by the source): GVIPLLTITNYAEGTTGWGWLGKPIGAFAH

Question: Which IC50 (IgG 4E10; [2]) does the source give for KGWNWFDITNWGK [KGND] here?
Answer: Its IC50 is over 10000 nM.

Question: And the IC50 (IgG 4E10; [3])?
Answer: The IC50 was over 10000 nM.

Question: What about the IC50 (IgG 4E10; [4]) of the same molecule?
Answer: The IC50 was over 10000 nM.

Question: And the IC50 (IgG 4E10; [5])?
Answer: Its IC50 is 10000 nM.

Question: For “KKBNWFDITNWLWKBKBK-NH2 (KKXNWFDITNWLWKXKXK-NH2; not fully specified (residues 3, 15, 17); printed as KKBNWFDITNWLWKBKBK-NH2) [Peptide 102-2]”, which IC50 (IgG 4E10; [3]) is on record?
Answer: The IC50 was 10 nM.

Question: How did the IC50 (IgG 4E10; [2]) turn out when “NWFCITOWLWKKKK-NH2 (NWFCIT[code O]WLWKKKK-NH2; not fully specified; printed as NWFCITOWLWKKKK-NH2; reading uncertain) [Peptide 104-1]” was run?
Answer: The IC50 was 40 nM.

Question: What about the IC50 (IgG 4E10; [4]) of the same molecule?
Answer: The IC50 was 40 nM.

Question: What does the source list for NWFDITN-Aib-LWRR-NH2 [Peptide 33-1]?
Answer: koff (Fab 4E10; Table 7): 0.13 s⁻¹; kon (Fab 4E10; Table 7): 431000 M⁻¹ s⁻¹; Kd (Fab 4E10; [6]): 302 nM; increased binding affinity in comparison with its peptide control (IgG 4E10): 3 fold; IC50 (IgG 4E10; [4]): 100 to 400 nM; higher affinity of 4E10 than to the original peptide KGND (IgG 4E10): approximately 10^3 fold

Question: Which IC50 (IgG 4E10; [5]) does the source give for NWFDITNWLWKBKBK-NH2 [Peptide 102-1] here?
Answer: The IC50 was 10 nM.

Question: With “NWFDITNWLWKKKK [Peptide 84-1, NWFDITNWLWKKKK-NH2]” as the molecule, how does the Kd (Fab 4E10; Table 5, unconstrained peptide analogs, 4E10 binding, read-out: Kd) read?
Answer: The Kd was 100 nM.

Question: And the IC50 (IgG 4E10; [5])?
Answer: Its IC50 is 40 nM.

Question: For “NWFDITNWLWRR [Peptide 44-1, NWFDITNWLWRR-NH2]”, which IC50 (IgG 4E10; [4]) is on record?
Answer: Its IC50 is 600 nM.

Question: What does the source list for “NWFc(CITO)WLWKKKK-NH2 (NWFCIT[code O]WLWKKKK-NH2; bridge 4-7; reading uncertain; also: printed as NWFc(CITO)WLWKKKK-NH2) [Peptide 104-2]”?
Answer: Kd (Fab 4E10; [7]): 17 nM; higher affinity of 4E10 than to peptide 33-1 (Fab 4E10; Table 7): about 17 fold; koff (Fab 4E10; Table 7): 0.0034 s⁻¹; kon (Fab 4E10; Table 7): 202000 M⁻¹ s⁻¹; Kd (Fab 4E10; [6]): 17 nM; Kd (Fab 4E10; read-out: Kd (Biacore)): 17 nM; increased binding affinity in comparison with its peptide control (IgG 4E10): 4 fold; IC50 (IgG 4E10; [3]): 10 nM; IC50 (IgG 4E10; [4]): 10 nM; higher affinity of 4E10 than to the original peptide KGND (IgG 4E10): approximately 10^3 fold; IC50 (IgG 4E10; [5]): 10 nM

Question: Which IC50 (IgG 4E10; [2]) does the source give for “SLWNWFDITNWLWKKKK [Peptide 84-4, SLWNWFDITNWLWKKKK-NH2]” here?
Answer: The IC50 was 120 nM.

Question: How did the IC50 (IgG 4E10; [5]) turn out when “SLWNWFDITNWLWYIKKKK [SLWNWFDITNWLWYIKKKK-NH2]” was run?
Answer: Its IC50 is 10 nM.

Question: With “WNWFDITNWLWKKKK [Peptide 84-2, WNWFDITNWLWKKKK-NH2]” as the molecule, how does the IC50 (IgG 4E10; [2]) read?
Answer: The IC50 was 120 nM.

Question: What does the source list for “c(CWFO)ITNWLWKKKK-NH2 (CWF[code O]ITNWLWKKKK-NH2; bridge 1-4; reading uncertain; also: printed as c(CWFO)ITNWLWKKKK-NH2) [Peptide 74-2]”?
Answer: Kd (Fab 4E10; [7]): 276 nM; IC50 (IgG 4E10; [3]): 230 nM

B1: peptide 102-1, …BKBK-NH2 (peptide)
peptide: NWFDITNWLWK[Aib]K[Aib]K-NH2
modifications: N-terminus assumed
SMILES: CC[C@H](C)[C@H](NC(=O)[C@H](CC(=O)O)NC(=O)[C@H](Cc1ccccc1)NC(=O)[C@H](Cc1c[nH]c2ccccc12)NC(=O)[C@@H](N)CC(N)=O)C(=O)N[C@H](C(=O)N[C@@H](CC(N)=O)C(=O)N[C@@H](Cc1c[nH]c2ccccc12)C(=O)N[C@@H](CC(C)C)C(=O)N[C@@H](Cc1c[nH]c2ccccc12)C(=O)N[C@@H](CCCCN)C(=O)NC(C)(C)C(=O)N[C@@H](CCCCN)C(=O)NC(C)(C)C(=O)N[C@@H](CCCCN)C(N)=O)[C@@H](C)O
Question: How did the IC50 [1] turn out when B1 was run?
Answer: Its IC50 is 10 nM.

Question: With NWFDITNWLWYIKXKXKK (B = Aib at positions 14 and 16; C-terminal amide) [peptide 119, …BKBKK-NH2] as the molecule, how does the IC50 [1] read?
Answer: Its IC50 is 10 nM.

Question: For KGWNWFDITNWGK (not fully specified) [peptide KGND (…)], which IC50 [1] is on record?
Answer: Its IC50 is over 10000 nM.

B2: peptide 102-2, KKB…BKBK-NH2 (peptide)
peptide: KK[Aib]NWFDITNWLWK[Aib]K[Aib]K-NH2
modifications: N-terminus assumed
SMILES: CC[C@H](C)[C@H](NC(=O)[C@H](CC(=O)O)NC(=O)[C@H](Cc1ccccc1)NC(=O)[C@H](Cc1c[nH]c2ccccc12)NC(=O)[C@H](CC(N)=O)NC(=O)C(C)(C)NC(=O)[C@H](CCCCN)NC(=O)[C@@H](N)CCCCN)C(=O)N[C@H](C(=O)N[C@@H](CC(N)=O)C(=O)N[C@@H](Cc1c[nH]c2ccccc12)C(=O)N[C@@H](CC(C)C)C(=O)N[C@@H](Cc1c[nH]c2ccccc12)C(=O)N[C@@H](CCCCN)C(=O)NC(C)(C)C(=O)N[C@@H](CCCCN)C(=O)NC(C)(C)C(=O)N[C@@H](CCCCN)C(N)=O)[C@@H](C)O
Question: Which IC50 [1] does the source give for B2 here?
Answer: Its IC50 is 10 nM.
